Values joined by “and” are separate entries in the source; they are usually repeats but may differ in a detail not shown here. Equal values may be shown once. Read-outs that look alike come from different tables or passages of the source.
What was measured:
Type in all cases: biochemical
VvGT14a [1] = target: T1, VvGT14a (Vitis vinifera, UniProt F6H0R6); conditions: for Km: monoterpenols at constant UDP-glucose […], UDP-glucose at fixed geraniol 100 µM, Tris-HCl pH 8.5, 30 °C; for kcat: pH 8.5
VvGT15b [2] = target: T2, VvGT15b (Vitis vinifera, UniProt F6GUW0)
T2 sequence (F6GUW0 entry or part of it): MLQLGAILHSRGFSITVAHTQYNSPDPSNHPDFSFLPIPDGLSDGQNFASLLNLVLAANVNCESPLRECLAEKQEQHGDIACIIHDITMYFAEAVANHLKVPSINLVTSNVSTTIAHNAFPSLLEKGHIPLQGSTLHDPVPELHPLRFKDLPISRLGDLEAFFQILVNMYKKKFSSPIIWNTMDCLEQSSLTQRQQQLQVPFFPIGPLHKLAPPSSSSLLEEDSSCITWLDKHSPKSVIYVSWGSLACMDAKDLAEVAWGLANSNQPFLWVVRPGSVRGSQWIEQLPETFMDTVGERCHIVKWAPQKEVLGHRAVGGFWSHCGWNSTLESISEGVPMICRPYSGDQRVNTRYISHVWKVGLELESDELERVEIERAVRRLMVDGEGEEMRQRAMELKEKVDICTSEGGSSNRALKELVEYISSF
Protocol: (§1) The measurements were performed under the following conditions. […] The assay of VvGT15a-c was performed at 30 °C using a Tris-HCl buffer (100 mM, 10 mM 2-mercaptoethanol, pH 7.5) and 10 min (VvGT15c) or 30 min (VvGT15a-b) of incubation for the best substrates. The amount of the purified enzyme and the incubation time were adapted depending on the counting sensibility. The reaction was stopped by adding 1 µL 24% trichloroacetic acid and glucosides were extracted with 100 µL ethyl acetate. Radioactivity was determined by LSC.
(§2) The KM- and vmax-values were calculated from Lineweaver-Burk plots, Hanes-Woolf plots and non-linear fitting of the experimental data.

VvGT15c [3] = target: T3, VvGT15c (Vitis vinifera, UniProt F6GUW0)
T3 sequence (F6GUW0 entry or part of it): as above
Protocol: as §1, §2

VvGT15a [4] = target: T4, VvGT15a (Vitis vinifera, UniProt F6GUW0)
T4 sequence (F6GUW0 entry or part of it): as above
Protocol: as §1, §2

VvGT14a [5] = target: T1, VvGT14a; test: Substrate screening, radiochemical activity assay with UDP-[14C]glucose; conditions: for conversion of putative substrate (in words): substrate screening, Figure 3; for relative specific activity: relative to conversion of geraniol (100 %), extractable radioactivity
Protocol: (§3) In the initial screening, each reaction mixture (200 µL in total) contained Tris-HCl buffer (100 mM, pH 8, 10 mM 2-mercaptoethanol), 37 pmol UDP-[^14C]glucose (0.01 µCi, Biotrend, Köln, Germany), substrate (50 µL of a 1 mg/mL stock solution) and purified protein (0.5-0.8 µg/µL). The reaction mixture was incubated at 30 °C for 18.5 hours. The assays were stopped by adding 1 µL 24% trichloroacetic acid and extracted with 500 µL water-saturated 1-butanol. The organic phase was mixed with 2 mL Pro Flow P+ cocktail (Meridian Biotechnologies Ltd., Epsom, UK) and radioactivity was determined by liquid scintillation counting (LSC, Tri-Carb 2800TR, Perkin Elmer, Waltham MA, USA). Additionally, negative controls without substrate were performed.
(§4) After determining the optimal conditions for the best substrate of each gene, the substrate screening was repeated under these conditions.
(§5) The alleles of VvGT14a-c, 15a-c and 16 were isolated from V. vinifera cultivars and cloned in the expression vector pGEX-4T-1. The recombinant proteins were expressed with an N-terminal GST-tag, affinity purified and verified by SDS-PAGE and Western Blot using GST-specific antibody. Enzyme activity studies were performed with UDP-[^14C]glucose and various putative substrates (terpenols, flavonoids and different mono-alcohols) that are known to be glycosidically bound and present in grapes (Gunata et al., 1988).

VvGT15c [6] = target: T3, VvGT15c; test: as above; conditions: for conversion of putative substrate (in words): substrate screening, Figure 3
Protocol: as §3, §4, §5

VvGT15a [7] = target: T4, VvGT15a; test: as above; conditions: for conversion of putative substrate (in words): substrate screening, Figure 3
Protocol: as §3, §4, §5

VvGT16 [8] = target: T5, VvGT16 (Vitis vinifera, UniProt F6HTJ4); test: Kinetics (KM, kcat) with UDP-[14C]glucose, liquid scintillation counting; conditions: monoterpenes at constant UDP-glucose 512.5 µM; UDP-glucose at fixed geraniol 1.25 mM; Tris-HCl pH 8.5, 30 °C
T5 sequence (F6HTJ4 entry or part of it): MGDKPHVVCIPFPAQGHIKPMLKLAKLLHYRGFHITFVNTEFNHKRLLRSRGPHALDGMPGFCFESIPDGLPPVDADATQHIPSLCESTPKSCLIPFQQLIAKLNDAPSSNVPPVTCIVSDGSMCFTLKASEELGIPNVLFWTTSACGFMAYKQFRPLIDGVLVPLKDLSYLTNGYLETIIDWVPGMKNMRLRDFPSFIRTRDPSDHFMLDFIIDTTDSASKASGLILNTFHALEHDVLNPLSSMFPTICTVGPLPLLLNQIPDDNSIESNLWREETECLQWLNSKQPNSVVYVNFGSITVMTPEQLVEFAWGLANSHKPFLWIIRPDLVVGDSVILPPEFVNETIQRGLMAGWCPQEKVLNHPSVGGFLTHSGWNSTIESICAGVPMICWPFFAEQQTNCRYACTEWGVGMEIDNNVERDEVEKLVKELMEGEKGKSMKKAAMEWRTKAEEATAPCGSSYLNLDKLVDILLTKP

VvGT16 [9] = target: T5, VvGT16; test: Substrate screening, radiochemical activity assay with UDP-[14C]glucose; conditions: for relative specific activity: relative to conversion of benzyl alcohol (100 %), extractable radioactivity; for efficiency of transformation of R- and S-citronellol (in words): radiochemical assays, Figure 12; for conversion of putative substrate (in words): substrate screening, Figure 3
Protocol: as §3, §4, §5

VvGT15b [10] = target: T2, VvGT15b; test: as above; conditions: for conversion of putative substrate (in words): substrate screening, Figure 3
Protocol: as §3, §4, §5

VvGT14a [11] = target: T1, VvGT14a; test: Activity based profiling using a physiologic aglycone library (radio-TLC, GC-MS); conditions: Figure 7
Protocol: For the preparation of aglycone extracts 50 g (fresh weight) grape skins or 4 g (fresh weight) inflorescences of Gewurztraminer Gm 11-18 were ground to a fine powder in liquid nitrogen. The isolation of glycosides was carried out as described above (see metabolite analysis). The methanolic fraction, which was obtained after SPE, was enzymatically hydrolysed. Therefore, the dried sample was dissolved in citric-acid buffer (0.1 M, pH 4), 50 mg AR 2000 (an enzyme preparation with glucosidase activity prepared from Aspergillus niger; DSM Food Specialties Beverage Ingredients, Delft, Netherlands) was added and incubated for 24 h with exclusion of light. The liberated aglycones were extracted by 20 mL methyl-tert-butyl ether and the organic phase was reduced to 1000µL using a gentle stream of nitrogen.
Aliquots of this aglycone extract were incubated with UDP-glucose and various VvGT-enzymes. Optimum conditions at 30 °C for 24 hours were applied. Each solution contained 100 µL purified enzyme, 100-150 µL Tris-HCl buffer (100 mM, pH7.5 or 8.5, 10 mM 2-mercaptoethanol), 37 pmol UDP-[^14C]glucose (0.01 µCi) and 50-100 µL extract (dissolved in methyl-tert-butylether). The buffer was mixed with the extract and the organic solvent was gently vaporized with nitrogen. The missing volume was adjusted with buffer before the enzyme was added. The reaction was stopped by adding 1 µL 24% trichloroacetic acid and extracted with 500 µL ethyl acetate. After termination of the reaction free aglycones, which were not converted by VvGT14 and VvGT15, were measured via SPME-(Solid Phase Microextraction)-GC-MS. These residual, free aglycones were completely removed by extraction with dichloromethane. Enzymatically formed glucosides were extracted by ethyl acetate, which was removed under nitrogen. The residue was dissolved in methanol and analyzed by LC-MS to detect the generated monoterpenol glucosides. Enzymatic hydrolysis of the glucosides was performed using AR 2000 and 2 mL citric-acid-buffer. After hydrolysis, a 100 µL aliquot was used to detect volatile aglycones via SPME-GC-MS. The remaining solution was extracted with methyl-tert-butyl ether and reduced under nitrogen to approximately 200 µL. One µL were measured by GC-MS via liquid injection.
Assays containing UDP-[^14C]glucose and aglycone libraries or substrates were performed as described above and subsequently extracted with 500 µL ethyl acetate. The organic solvent was vaporized and the pellet was re-suspended in 10 µL methanol and was applied on Silica Gel 60 F254 plates (Merck, Darmstadt, Germany). The dried plates were developed in a solvent system chloroform:acetic acid:water (50/45/5, v:v:v). Plates were dried and analyzed by digital autoradiograph (digital autoradiograph, EG&G Berthold, Wildbad, Germany).
An aglycone library of the two tissues was obtained by enzymatic hydrolysis of the glycosides followed by liquid-liquid extraction of the released alcohols and acids. […] The formed glycosides were separated by thin layer chromatography (TLC) and visualized by radiodetection whereas identification could be achieved by LC-MS and NMR analysis and, after hydrolysis, by GC-MS and LC-MS (Figure 6).

[12] = substrates at fixed UDP-glucose 833 µM, UDP-glucose at constant geraniol 1.25 mM, Tris-HCl pH 7.5, 30 °C
[13] = relative to conversion of geraniol (100 %), extractable radioactivity
[14] = citronellol enantiomers, Figure 12, highest level of extractable radioactivity = 100 %

T1 sequence (F6H0R6 entry or part of it): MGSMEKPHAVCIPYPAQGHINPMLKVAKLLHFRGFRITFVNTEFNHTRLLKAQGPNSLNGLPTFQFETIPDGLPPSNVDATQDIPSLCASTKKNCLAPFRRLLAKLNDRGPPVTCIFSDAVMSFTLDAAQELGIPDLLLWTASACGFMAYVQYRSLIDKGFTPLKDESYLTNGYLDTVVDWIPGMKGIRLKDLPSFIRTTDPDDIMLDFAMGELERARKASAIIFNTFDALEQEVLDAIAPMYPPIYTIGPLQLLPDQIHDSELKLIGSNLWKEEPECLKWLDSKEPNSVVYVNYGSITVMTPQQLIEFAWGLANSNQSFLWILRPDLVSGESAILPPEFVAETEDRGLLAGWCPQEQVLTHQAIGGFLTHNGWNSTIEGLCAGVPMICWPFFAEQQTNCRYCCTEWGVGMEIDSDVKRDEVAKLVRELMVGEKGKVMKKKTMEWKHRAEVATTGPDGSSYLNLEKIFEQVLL

C=CC(C)(O)CCC=C(C)CO (centres unmarked) [8-hydroxylinalool]
Km (VvGT14a [1]): 48 ± 2 µM
kcat (VvGT14a [1]): 0.002 s⁻¹
Km (VvGT15b [2]; [12]): 33 ± 1.8 µM
kcat (VvGT15b [2]; [12]): 0.003 s⁻¹
kcat (VvGT15c [3]; pH 7.5): 0.004 s⁻¹
Km (VvGT15c [3]; [12]): 17 ± 0.2 µM
Km (VvGT15a [4]; [12]): 32 ± 1.4 µM
kcat (VvGT15a [4]; [12]): 0.003 s⁻¹
conversion of putative substrate (in words) (VvGT14a [5]): catalytic activity
conversion of putative substrate (in words) (VvGT15c [6]): able to use
conversion of putative substrate (in words) (VvGT15a [7]): able to use

CC(C)=CCC/C(C)=C/CO [Geraniol, (E)-3,7-dimethyl-2,6-octadien-1-ol]
Km (VvGT14a [1]): 9 ± 1.2 µM
kcat (VvGT14a [1]): 0.02 s⁻¹
Km (VvGT16 [8]): 355 ± 14 µM
kcat (VvGT16 [8]): 0.015 s⁻¹
Michaelis constant, fold greater than the KM values for nerol and S-citronellol (VvGT15b [2]): about 2 fold
kcat (VvGT15b [2]; pH 7.5): 0.1 s⁻¹ and 0.10 s⁻¹
Km (VvGT15b [2]; [12]): 81 µM
Michaelis constant, fold greater than the KM values for nerol and S-citronellol (VvGT15c [3]): about 2 fold
kcat (VvGT15c [3]; pH 7.5): 0.17 s⁻¹
Km (VvGT15c [3]; [12]): 43 µM
Michaelis constant, fold greater than the KM values for nerol and S-citronellol (VvGT15a [4]): about 2 fold
kcat (VvGT15a [4]; pH 7.5): 0.12 s⁻¹
Km (VvGT15a [4]; [12]): 63 µM
relative specific activity (VvGT16 [9]): > 80%
relative specific activity (VvGT14a [5]): 100%
conversion of putative substrate (in words) (VvGT14a [5]): preferred
relative specific activity (VvGT15b [10]; [13]): 100%
conversion of putative substrate (in words) (VvGT15b [10]): glucosylated primarily
relative specific activity (VvGT15c [6]; [13]): 100%
conversion of putative substrate (in words) (VvGT15c [6]): glucosylated primarily
relative specific activity (VvGT15a [7]; [13]): 100%
conversion of putative substrate (in words) (VvGT15a [7]): glucosylated primarily
aglycone liberated by enzymatic hydrolysis of the glucosides formed from the grape skin aglycone library (in words) (VvGT14a [11]): substantial amount

CC(C)=CCC[C@@H](C)CCO [R-citronellol, (R)-(+)-13-citronellol]
efficiency of transformation of R- and S-citronellol (in words) (VvGT16 [9]): same efficiency

CC(C)=CCC/C(C)=C\CO [Nerol, (Z)-3,7-dimethyl-2,6-octadien-1-ol]
Km (VvGT14a [1]): 10 ± 0.7 µM
kcat (VvGT14a [1]): 0.02 s⁻¹
Km (VvGT16 [8]): 118 ± 4.7 µM
kcat (VvGT16 [8]): 0.009 s⁻¹
Km (VvGT15b [2]; [12]): 40 ± 3.7 µM
kcat (VvGT15b [2]; [12]): 0.03 s⁻¹
kcat (VvGT15c [3]; pH 7.5): 0.06 s⁻¹
Km (VvGT15c [3]; [12]): 28 ± 0.9 µM
kcat (VvGT15a [4]; pH 7.5): 0.04 s⁻¹
Km (VvGT15a [4]; [12]): 48 ± 1.7 µM
conversion of putative substrate (in words) (VvGT16 [9]): transformed
relative specific activity (VvGT14a [5]): > 80%
conversion of putative substrate (in words) (VvGT15b [10]): glucosylated primarily
conversion of putative substrate (in words) (VvGT15c [6]): glucosylated primarily
conversion of putative substrate (in words) (VvGT15a [7]): glucosylated primarily
aglycone liberated by enzymatic hydrolysis of the glucosides formed from the grape skin aglycone library (in words) (VvGT14a [11]): remarkable quantities

CCCCCCO [hexanol]
relative specific activity (VvGT16 [9]): > 80%
relative specific activity (VvGT14a [5]): > 80%
conversion of putative substrate (in words) (VvGT15b [10]): glucosylated primarily
conversion of putative substrate (in words) (VvGT15c [6]): glucosylated primarily
conversion of putative substrate (in words) (VvGT15a [7]): glucosylated primarily

CC(C)=CCC[C@H](C)CCO [S-citronellol]
Km (VvGT15b [2]; [12]): 55 ± 1.3 µM
kcat (VvGT15b [2]; [12]): 0.03 s⁻¹
Km (VvGT15c [3]; [12]): 20 ± 1.6 µM
kcat (VvGT15c [3]; [12]): 0.03 s⁻¹
kcat (VvGT15a [4]; pH 7.5): 0.02 s⁻¹
Km (VvGT15a [4]; [12]): 29 ± 3 µM
efficiency of transformation of R- and S-citronellol (in words) (VvGT16 [9]): same efficiency
relative specific activity (VvGT15b [10]; [14]): 100%
relative specific activity (VvGT15a [7]; [14]): 100%

O=c1c(O)c(-c2ccc(O)c(O)c2)oc2cc(O)cc(O)c12 [quercetin]
relative specific activity (VvGT14a [5]): < 1%

OCc1ccccc1 [benzyl alcohol]
relative specific activity (VvGT16 [9]): > 80% and 100%
conversion of putative substrate (in words) (VvGT14a [5]): catalytic activity
aglycone liberated by enzymatic hydrolysis of the glucosides formed from the grape skin aglycone library (in words) (VvGT14a [11]): remarkable quantities

CC(C)=CCCC(C)=CCCC(C)=CCO [farnesol]
conversion of putative substrate (in words) (VvGT14a [5]): catalytic activity
conversion of putative substrate (in words) (VvGT15a [7]): low activity

CCCCCCCCO [octanol]
relative specific activity (VvGT14a [5]): > 80%
conversion of putative substrate (in words) (VvGT15b [10]): glucosylated primarily
conversion of putative substrate (in words) (VvGT15c [6]): glucosylated primarily
conversion of putative substrate (in words) (VvGT15a [7]): glucosylated primarily

N#CC(O)c1ccccc1 (centres unmarked) [mandelonitrile]
conversion of putative substrate (in words) (VvGT14a [5]): catalytic activity

CCC/C=C/CO [trans 2-hexenol]
conversion of putative substrate (in words) (VvGT16 [9]): transformed
conversion of putative substrate (in words) (VvGT14a [5]): catalytic activity
conversion of putative substrate (in words) (VvGT15c [6]): able to use
conversion of putative substrate (in words) (VvGT15a [7]): able to use

C=C(C)CCO [3-methyl-3-butenol]
conversion of putative substrate (in words) (VvGT14a [5]): catalytic activity

Oc1ccc(-c2[o+]c3cc(O)cc(O)c3cc2O)cc1 [pelargonodin]
relative specific activity (VvGT14a [5]): < 1%

CC(C)=CCO [3-methyl-2-butenol]
conversion of putative substrate (in words) (VvGT16 [9]): transformed
conversion of putative substrate (in words) (VvGT14a [5]): catalytic activity

O=c1c(O)c(-c2ccc(O)cc2)oc2cc(O)cc(O)c12 [kaempferol]
relative specific activity (VvGT14a [5]): < 1%

CC/C=C\CCO [cis 3-hexenol]
conversion of putative substrate (in words) (VvGT16 [9]): transformed
conversion of putative substrate (in words) (VvGT14a [5]): catalytic activity

Oc1cc(O)c2cc(O)c(-c3ccc(O)c(O)c3)[o+]c2c1 [cyanidin]
relative specific activity (VvGT14a [5]): < 1%

C=CCc1ccc(O)c(OC)c1 [eugenol]
conversion of putative substrate (in words) (VvGT14a [5]): catalytic activity
